Experimental data taken from PMC10755728, “Inhibitors of the Elastase LasB for the Treatment of Pseudomonas aeruginosa Lung Infections” (ACS Central Science, 2023).
Read-outs that look alike come from different tables or passages of the source.

Columns and labels:
LasB = molecular target: T1, LasB (Pseudomonas aeruginosa, UniProt Q02RJ6); test: biochemical; assay type: biochemical; details: for fold drop in activity compared to the 4-Me derivative (4a): vs 4a; for inhibition at 100 µM: read-out: % inh LasB @100 µM
T1 construct: made in house
T1 sequence (Q02RJ6 198-498): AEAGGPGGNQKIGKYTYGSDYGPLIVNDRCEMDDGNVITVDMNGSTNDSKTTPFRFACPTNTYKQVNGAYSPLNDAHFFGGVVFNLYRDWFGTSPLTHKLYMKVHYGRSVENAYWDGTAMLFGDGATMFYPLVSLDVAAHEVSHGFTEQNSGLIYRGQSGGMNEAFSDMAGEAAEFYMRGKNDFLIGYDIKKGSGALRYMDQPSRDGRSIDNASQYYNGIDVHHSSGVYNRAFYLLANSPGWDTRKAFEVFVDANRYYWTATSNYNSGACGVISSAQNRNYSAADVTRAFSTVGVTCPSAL

Calu-3 permeability = assay type: in vitro ADME; details: human
HDAC-8 = molecular target: T2, HDAC-8 (Homo sapiens, UniProt Q9BY41); test: HDAC-8 inhibitor screening kit; assay type: biochemical
T2 construct: purchased Sigma-Aldrich (Saint Louis, MO)
T2 sequence (Q9BY41 1-377): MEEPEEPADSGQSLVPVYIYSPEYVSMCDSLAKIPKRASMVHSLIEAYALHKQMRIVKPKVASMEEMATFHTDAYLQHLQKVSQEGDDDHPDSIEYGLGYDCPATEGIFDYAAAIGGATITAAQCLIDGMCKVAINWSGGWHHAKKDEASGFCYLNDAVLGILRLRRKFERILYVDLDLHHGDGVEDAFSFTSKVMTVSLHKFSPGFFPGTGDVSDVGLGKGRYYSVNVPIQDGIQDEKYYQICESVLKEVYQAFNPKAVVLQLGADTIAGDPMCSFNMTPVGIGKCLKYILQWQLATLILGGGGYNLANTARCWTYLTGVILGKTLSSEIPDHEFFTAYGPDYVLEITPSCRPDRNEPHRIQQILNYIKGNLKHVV

MMP-3 = molecular target: T3, MMP-3 (Homo sapiens, UniProt P08254); test: MMP-3 inhibition assay; assay type: biochemical; details: 100 μM; read-out: % inhibition MMP-3
T3 construct: purchased AnaSpec (Fremont, CA, USA)
T3 sequence (P08254 100-477): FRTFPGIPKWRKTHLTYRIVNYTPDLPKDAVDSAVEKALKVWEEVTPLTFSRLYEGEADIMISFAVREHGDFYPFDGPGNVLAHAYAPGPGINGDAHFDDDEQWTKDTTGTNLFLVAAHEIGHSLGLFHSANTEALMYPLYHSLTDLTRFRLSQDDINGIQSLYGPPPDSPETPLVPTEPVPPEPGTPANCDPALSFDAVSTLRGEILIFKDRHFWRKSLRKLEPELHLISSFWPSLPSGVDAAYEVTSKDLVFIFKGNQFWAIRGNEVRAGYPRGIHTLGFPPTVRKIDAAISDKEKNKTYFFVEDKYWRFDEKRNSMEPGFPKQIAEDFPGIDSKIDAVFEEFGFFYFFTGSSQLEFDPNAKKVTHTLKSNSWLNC

TACE = molecular target: T4, TACE (Homo sapiens, UniProt P78536); test: TACE inhibitor screening kit; assay type: biochemical; details: 100 μM; read-out: % inhibition TACE
T4 construct: purchased Sigma-Aldrich (Saint Louis, MO)
T4 sequence (P78536 215-824): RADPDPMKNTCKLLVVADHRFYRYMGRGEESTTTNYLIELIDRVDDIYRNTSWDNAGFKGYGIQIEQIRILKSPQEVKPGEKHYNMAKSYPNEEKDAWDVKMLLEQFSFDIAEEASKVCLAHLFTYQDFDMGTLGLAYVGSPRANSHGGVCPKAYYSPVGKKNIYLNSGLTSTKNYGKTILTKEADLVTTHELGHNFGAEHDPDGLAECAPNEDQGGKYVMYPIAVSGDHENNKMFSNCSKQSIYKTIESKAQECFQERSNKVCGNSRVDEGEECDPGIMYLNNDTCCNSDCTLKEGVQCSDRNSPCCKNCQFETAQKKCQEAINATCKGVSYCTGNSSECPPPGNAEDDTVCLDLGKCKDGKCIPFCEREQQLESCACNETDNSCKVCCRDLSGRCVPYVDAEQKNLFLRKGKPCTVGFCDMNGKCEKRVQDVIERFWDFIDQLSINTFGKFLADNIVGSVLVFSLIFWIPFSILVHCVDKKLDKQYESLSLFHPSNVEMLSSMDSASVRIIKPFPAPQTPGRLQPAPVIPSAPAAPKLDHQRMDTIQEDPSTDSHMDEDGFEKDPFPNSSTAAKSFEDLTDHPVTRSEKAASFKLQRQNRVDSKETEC

[1] = Metabolic stability in human liver S9 fraction; assay type: in vitro ADME
Plasma stability, mouse = assay type: in vitro ADME; details: mouse plasma; read-out: Plasma T1/2 Mouse
[2] = Lipophilicity determination (LogD7.4, HPLC-MS); assay type: physicochemical; details: pH 7.4, pH 7.4, chromatographic
Protocol: Lipophilicity determination. LogD7.4 was analyzed using an HPLC−MS based method.50 The retention time of 12 compounds with known LogD7.4 was determined and plotted toward their LogD7.4. Linear regression was used to determine the LogD7.4 of unknown compounds. Analysis was performed using a Dionex Ultimate 3000 HPLC system coupled to a TSQ Quantum Access MAX (Thermo Fisher, Dreieich, Germany) with the following conditions: EC150/2 NUCLEODUR C18 Pyramid column, 5 μM (Macherey Nagel, Düren, Germany); eluent A: 50 mM NH4OAc pH 7.4, eluent B: acetonitrile, and flow: 0.6 mL/min.

COX-1 = molecular target: T5, COX-1 (Ovis aries, UniProt P05979); test: Fluorometric COX-1 inhibitor assay; assay type: biochemical, human
T5 construct: purchased Abcam (Cambridge, UK)
T5 sequence (P05979 25-600): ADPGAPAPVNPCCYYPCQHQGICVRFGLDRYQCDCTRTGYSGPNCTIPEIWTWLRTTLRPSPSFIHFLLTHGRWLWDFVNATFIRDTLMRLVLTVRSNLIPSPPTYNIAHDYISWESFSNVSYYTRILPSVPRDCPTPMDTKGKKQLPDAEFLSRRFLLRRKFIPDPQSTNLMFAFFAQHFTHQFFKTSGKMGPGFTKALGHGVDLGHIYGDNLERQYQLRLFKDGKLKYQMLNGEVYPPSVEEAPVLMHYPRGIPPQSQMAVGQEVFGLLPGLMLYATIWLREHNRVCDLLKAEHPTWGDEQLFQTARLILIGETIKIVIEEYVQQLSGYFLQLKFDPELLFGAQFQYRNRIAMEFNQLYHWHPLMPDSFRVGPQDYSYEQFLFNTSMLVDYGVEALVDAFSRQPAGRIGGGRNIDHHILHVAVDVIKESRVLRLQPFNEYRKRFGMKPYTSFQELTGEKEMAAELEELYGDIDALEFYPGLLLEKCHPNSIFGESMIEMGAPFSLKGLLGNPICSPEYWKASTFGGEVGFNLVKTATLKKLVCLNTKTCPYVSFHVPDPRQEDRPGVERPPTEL

MMP-1 = molecular target: T6, MMP-1 (Homo sapiens, UniProt P03956); test: MMP-1 inhibition assay; assay type: biochemical; details: 100 μM; read-out: % inhibition MMP-1
T6 construct: purchased AnaSpec (Fremont, CA, USA)
T6 sequence (P03956 100-469): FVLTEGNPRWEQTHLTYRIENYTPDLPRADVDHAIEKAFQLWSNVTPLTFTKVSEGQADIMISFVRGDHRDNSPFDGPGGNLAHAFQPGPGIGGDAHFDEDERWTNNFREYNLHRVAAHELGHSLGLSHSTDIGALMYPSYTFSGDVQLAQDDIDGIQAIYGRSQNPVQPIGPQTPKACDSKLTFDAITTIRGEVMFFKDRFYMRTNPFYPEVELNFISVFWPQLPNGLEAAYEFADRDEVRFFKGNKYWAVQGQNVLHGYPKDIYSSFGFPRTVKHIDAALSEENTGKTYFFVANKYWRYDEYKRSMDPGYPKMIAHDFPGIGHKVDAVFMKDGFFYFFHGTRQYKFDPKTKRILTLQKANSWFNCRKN

HDAC-3 = molecular target: T7, HDAC-3 (Homo sapiens, UniProt O15379); test: HDAC-3 inhibitor screening kit; assay type: biochemical
T7 construct: purchased Sigma-Aldrich (Saint Louis, MO)
T7 sequence (O15379 whole entry): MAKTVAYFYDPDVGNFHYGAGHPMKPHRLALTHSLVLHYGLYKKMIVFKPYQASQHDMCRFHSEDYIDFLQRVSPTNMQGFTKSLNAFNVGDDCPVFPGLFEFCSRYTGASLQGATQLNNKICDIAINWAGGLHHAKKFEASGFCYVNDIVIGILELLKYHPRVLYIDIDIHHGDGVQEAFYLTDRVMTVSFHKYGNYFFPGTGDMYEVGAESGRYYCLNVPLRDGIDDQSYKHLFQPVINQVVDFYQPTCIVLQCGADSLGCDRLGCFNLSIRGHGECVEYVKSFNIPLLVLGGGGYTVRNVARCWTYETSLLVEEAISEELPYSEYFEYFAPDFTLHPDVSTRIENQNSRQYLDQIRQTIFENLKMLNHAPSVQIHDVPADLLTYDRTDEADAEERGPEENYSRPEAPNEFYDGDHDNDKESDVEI
T7 sequence (Q9Y618 395-489 partner limits assumed): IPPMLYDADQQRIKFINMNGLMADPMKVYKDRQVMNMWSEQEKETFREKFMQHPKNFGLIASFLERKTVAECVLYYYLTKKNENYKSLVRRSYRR

[3] = Metabolic stability in mouse liver S9 fraction; assay type: in vitro ADME
MMP-2 = molecular target: T8, MMP-2 (Homo sapiens, UniProt P08253); test: MMP-2 inhibition assay; assay type: biochemical; details: 100 μM; read-out: % inhibition MMP-2
T8 construct: purchased AnaSpec (Fremont, CA, USA)
T8 sequence (P08253 110-660): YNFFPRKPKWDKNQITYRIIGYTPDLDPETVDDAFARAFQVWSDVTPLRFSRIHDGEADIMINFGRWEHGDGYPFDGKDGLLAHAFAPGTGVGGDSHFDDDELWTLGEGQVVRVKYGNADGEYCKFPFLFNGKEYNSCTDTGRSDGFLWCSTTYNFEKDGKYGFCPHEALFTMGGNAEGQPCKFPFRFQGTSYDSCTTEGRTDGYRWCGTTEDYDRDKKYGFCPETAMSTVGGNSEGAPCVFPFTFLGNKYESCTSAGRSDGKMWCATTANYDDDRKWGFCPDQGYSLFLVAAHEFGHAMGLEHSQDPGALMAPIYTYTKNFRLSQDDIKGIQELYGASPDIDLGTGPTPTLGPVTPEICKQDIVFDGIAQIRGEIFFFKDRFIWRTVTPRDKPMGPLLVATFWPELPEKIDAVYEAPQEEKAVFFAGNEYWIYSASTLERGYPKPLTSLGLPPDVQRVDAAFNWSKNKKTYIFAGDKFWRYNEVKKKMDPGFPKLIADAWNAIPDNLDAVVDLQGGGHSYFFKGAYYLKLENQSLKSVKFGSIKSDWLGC

[4] = system: Galleria mellonella larvae infected with wt PA14; test: G. mellonella infection model
ColH-PD = ColH-PD (Hathewaya histolytica, UniProt Q46085); test: biochemical; assay type: biochemical, Clostridium histolyticum; details: for inhibition at 1 µM: read-out: % inhibition ColH-PD @1 µM
Chain of ColH-PD (Q46085 331-721 limits assumed): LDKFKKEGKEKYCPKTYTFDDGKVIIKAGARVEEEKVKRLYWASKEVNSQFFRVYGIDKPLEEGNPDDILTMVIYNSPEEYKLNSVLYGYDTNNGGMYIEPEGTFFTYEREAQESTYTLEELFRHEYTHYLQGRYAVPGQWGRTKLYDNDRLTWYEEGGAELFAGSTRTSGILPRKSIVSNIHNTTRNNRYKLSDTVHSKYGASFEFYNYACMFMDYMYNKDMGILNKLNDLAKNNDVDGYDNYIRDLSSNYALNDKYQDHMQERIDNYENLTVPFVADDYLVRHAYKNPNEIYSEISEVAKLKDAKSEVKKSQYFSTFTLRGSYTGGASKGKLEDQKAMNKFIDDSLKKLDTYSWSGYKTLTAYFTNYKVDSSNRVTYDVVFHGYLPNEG

HEK293 = details: human, 48 h, 100 µM
Protocol: Culturing of HepG2, A549 and HEK293 cells. The human hepatocellular carcinoma cell line HepG2, the lung adenocarcinoma cell line A549 and Human Embryonic (HEK) 293 cells were cultured in Dulbecco's Modified Eagle Medium (DMEM), containing 10% Fetal Bovine Serum
(FBS) and 1% penicillin-streptomycin mixture. Cells were maintained according to standard cell
Cytotoxicity assay. An MTT-based assay was employed to evaluate the viability of HepG2,
HEK293 and A549 cells after challenge with selected LasB inhibitors and performed as described

[5] = FRET-based assay, read-out: LasB IC50

`CC(C)CC(C(=O)Nc1ccc(Cl)cc1)P(=O)(O)O` (stereo not shown) [Compound 4i] gave an IC50 (LasB; [5]) of 47.6 ± 4.4 nM.
In the case of `Cc1ccc(NC(=O)C(CC(C)C)S(=O)(=O)O)cc1` (stereo not shown) [Compound 3i], the IC50 (LasB; LasB IC50, FRET-based assay) is reported as 16000 nM, the Papp at 300 min (Calu-3 permeability) is reported as 0.47 ± 0.36 ×10⁻⁶ cm/s and the inhibition at 100 µM (HDAC-8) is reported as < 10%. The inhibition at 100 µM (MMP-3) was < 10%, the inhibition at 100 µM (TACE) was < 10% and the microsomal CLint at 1 μM [1] was < 5.8 µL/min/mg. The half-life at 1 μM (Plasma stability, mouse) was > 2.5 h, the chromatographic logD [2] was -0.64 and the inhibition at 100 µM (COX-1) was < 10%. For the same molecule, the inhibition at 100 µM (MMP-1) was 12 ± 2%, the inhibition at 100 µM (HDAC-3) was < 10% and the microsomal CLint at 1 μM [3] was < 5.8 µL/min/mg. For the same molecule, the inhibition at 100 µM (MMP-2) was < 10%.
With `Cc1ccc(NC(=O)C(CC(C)C)P(=O)(O)O)c(C)c1` (stereo not shown) [Compound 4e] the IC50 (LasB; [5]) was 84.5 ± 2.7 nM and the “fold drop in activity compared to the 4-Me derivative (4a)” value (LasB) was ~2 fold.
For `Cc1ccc(NC(=O)C(CC(C)C)C(=O)O)cc1` (stereo not shown) [Compound 3e], the inhibition at 100 µM (LasB) was 46 ± 3%.
In the case of `NC[C@H]1O[C@H](O[C@H]2[C@H](O)[C@@H](O[C@H]3O[C@H](CO)[C@@H](O)[C@H](N)[C@H]3O)[C@H](N)C[C@@H]2N)[C@H](N)C[C@@H]1O` [tobramycin, reference compound], the “survival of larvae infected with wt PA14” value ([4]; 1 nmol 4b, 10.7 nmol tobramycin, or both, 17% in the wild type) is reported as 23% and the “survival in the PBS treated groups (not infected)” value ([4]; PBS with 4b, tobramycin or combination of both) is reported as 100%.
With `CC(C)CC(C(=O)Nc1ccc(Cl)cn1)P(=O)(O)O` (stereo not shown) [Compound 4p] the IC50 (LasB; [5]) was 500 ± 40 nM and the “fold more potent than 4q” value (LasB; vs 4q) was 2 fold.
`Cc1ccc(NC(=O)C(CC2CCCCC2)P(=O)(O)O)cc1` (stereo not shown) [Compound 4z] gave an IC50 (LasB; [5]) of 2030 nM.
For `COc1ccc(NC(=O)C(CC(C)C)P(=O)(O)O)cc1` (stereo not shown) [Compound 4f], the IC50 (LasB; [5]) was 51.8 ± 10.4 nM and the inhibition at 1 µM (ColH-PD) was < 10%.
In the case of `Cc1ccc(NC(=O)[C@H](CC(C)C)NC(=O)OC(C)(C)C)cc1` [Compound 3a], the inhibition at 100 µM (LasB) is reported as < 10%.
For `Cc1ccc(NC(=O)C(CC(C)C)n2cncn2)cc1` (stereo not shown) [Compound 3n], the inhibition at 100 µM (LasB) was < 10%.
With `Cc1ccc(NC(=O)C(CC(C)C)P(=O)(O)O)c(F)c1` (stereo not shown) [Compound 4d] the IC50 (LasB; [5]) was 116 ± 16.1 nM, the “fold drop in activity compared to the 4-Me derivative (4a)” value (LasB) was ~2 fold and the inhibition at 1 µM (ColH-PD) was < 10%.
With `Cc1ccc(NC(=O)C(CC(C)C)c2nn[nH]n2)cc1` (stereo not shown) [Compound 3j] the inhibition at 100 µM (LasB) was < 10%.
With `CC(=O)c1ccc(NC(=O)C(CC(C)C)P(=O)(O)O)cc1` (stereo not shown) [Compound 4g] the IC50 (LasB; [5]) was 40.4 ± 11.6 nM, the “% inhibition ColH-PD @1 µM” value (ColH-PD) was 65% and the Ki (ColH-PD) was 320 ± 70 nM. The “fold higher potency against ColH compared to 2” value (ColH-PD) was 20 fold.
For `Cc1ccc(NC(=O)C(CC(C)C)OS(N)(=O)=O)cc1` (stereo not shown) [Compound 3c], the IC50 (LasB; LasB IC50, FRET-based assay) was 53000 ± 4000 nM.
For `CC(C)CC(C(=O)Nc1ccc(Br)cc1)P(=O)(O)O` (stereo not shown) [Compound 4j], the IC50 (LasB; [5]) was 48.6 ± 2.3 nM.
In the case of `Cc1ccc(NC(=O)C(CC(C)C)n2nccn2)cc1` (stereo not shown) [Compound 3m], the “% growth inhibition HEK293” value (HEK293) is reported as 21 ± 1%, the Papp at 300 min (Calu-3 permeability) is reported as 18 ± 1 ×10⁻⁶ cm/s and the inhibition at 100 µM (HDAC-8) is reported as < 10%. For the same molecule, the inhibition at 100 µM (MMP-3) was < 10%, the inhibition at 100 µM (TACE) was < 10% and the microsomal CLint at 1 μM [1] was 18.5 ± 0.9 µL/min/mg. For the same molecule, the half-life at 1 μM (Plasma stability, mouse) was > 2.5 h, the chromatographic logD [2] was > 1.8 and the inhibition at 100 µM (COX-1) was < 10%. For the same molecule, the inhibition at 100 µM (MMP-1) was < 10%, the inhibition at 100 µM (HDAC-3) was < 10% and the microsomal CLint at 1 μM [3] was 356 ± 45 µL/min/mg. The inhibition at 100 µM (MMP-2) was < 10%.
